# According to article PMC4982551 (MedChemComm, 2016):
# Biological target: mPTPB (Mycobacterium tuberculosis, UniProt I6WXK4)
# Assay: PTP activity assay with pNPP substrate, mPTPB
# Type: biochemical
# Settings: ratio of IC50 values
# Chain of mPTPB (I6WXK4 whole entry, looked up): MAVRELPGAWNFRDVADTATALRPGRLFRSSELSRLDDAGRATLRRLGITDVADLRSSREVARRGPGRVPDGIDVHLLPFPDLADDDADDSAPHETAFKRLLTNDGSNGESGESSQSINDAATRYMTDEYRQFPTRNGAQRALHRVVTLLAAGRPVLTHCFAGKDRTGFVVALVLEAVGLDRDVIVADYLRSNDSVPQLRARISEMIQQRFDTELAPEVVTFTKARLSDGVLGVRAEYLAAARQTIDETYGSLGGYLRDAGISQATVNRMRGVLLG
smiles,measurement,value
Cc1ccc(S(=O)(=O)NNC(=O)COc2ccc3cc(C(O)(C(F)(F)F)C(F)(F)F)c(O)cc3c2)cc1 [7r],"selectivity for mPTPB compared to SHP2, PTP1B, CD45, LYP, and FAP-1",more than 7 fold
